The values that follow come from patent US10787650B2, “Artificial bioluminescent enzymes” (NATIONAL INSTITUTE OF ADVANCED INDUSTRIAL SCIENCE AND …, priority 2015, dated 2020).

“Also recorded” adds a separate entry of the source.

Series [1] concerns ALuc16. The series can be described thus: Circular dichroism (CD) measurement of metal cation-mixed ALuc16. As to conditions: for effect on structure of ALuc16 (CD spectra, 222 nm): varying cation concentrations. The procedure:
Circular dichroism (CD) measurement was further conducted for reasoning the cation-driven degradation of ALuc16 activities (FIG. 9). Samples were prepared by mixing varying concentrations of Pb(II) or Al(III) with column-purified and dialyzed ALuc16, and were measured with a CD spectrometer (JASCO, Japan) after preparation.

In series [2] the test system is molecular strain sensor. The series can be described thus: Metal ion effects on luminescence of the purified molecular strain sensor. In kind it is biochemical. As to conditions: within 1 minute after substrate addition. On the procedure:
For this experiment, the concentration of the purified molecular strain sensor was adjusted to 0.1 mg/mL by dilution in a Tris-HCl buffer (pH 8.2). Rapamycin was added to the molecular strain sensor and the final concentration was adjusted to […]. After that, the resultant was diluted with metal ion-containing Tris-HCl buffer (pH 8.2) to make a 0.01 mg/mL molecular strain sensor solution. At this time, the final concentration of the metal ion added was 10 μg/mL. The solution was transferred to a 96-well microplate, and, while the substrate solution was added from a microinjector, luminescence intensities were measured with or without a metal ion.
The luminescence stability of the luminescent probe dependent on different metal ion concentrations was studied by a similar technique (FIG. 23). The substrate solution was added from a microinjector in the same manner as above, and then changes in luminescence intensity over 1 minute were measured.

Series [3] concerns Fridericia luciferase. As to conditions: cited from earlier work.
Series [4] relates to ALuc16. The series can be described thus: Metal cation-driven variance of bioluminescence spectra of ALuc16. In kind it is biochemical. As to conditions: 100 μg/mL cation. The procedure: The corresponding bioluminescence spectra (FIG. 6(B)) were also measured using the same method as that of FIG. 6(A). In a 200 μL PCR tube, 50 μL of the mixture of ALuc16 and a metal cation (Ca(II), Fe(III), Ni(II), Zn(II), Mg(II), or Cr(VI); concentration: 100 μg/mL) in the metal-cation-free Tris-HCl buffer (Solution A) was further mixed with 10 μL of an nCTZ solution (Solution B). The tube was immediately moved into the chamber of a precision spectrophotometer (AB-1850, ATTO) (FIG. 6(B)), and the consequent spectra were taken in an integration of 30 seconds.

The subject of series [5] is ALuc16. Put plainly: Cation-driven long-term stability of optical intensities of ALuc16. In kind it is biochemical. As to conditions: for effect on long-term stability of bioluminescence intensities: 60 minutes after substrate injection. The procedure: The long-term stability of optical intensities was estimated by the same method as that of FIG. 6(A) (FIG. 8(A)). The microplate was placed in the chamber of LAS-4000, and the optical intensities were monitored every 5 minutes, after substrate injection, for a duration of 60 minutes.

Series [6] concerns the target OLuc (Oplophorus gracilirostris, UniProt Q9GV45). The settings on record: cited from earlier work.
Series [7] relates to ALuc16. Put plainly: Metal cation-driven optical intensities of ALuc16 (purified enzyme). It is filed as biochemical. The settings on record: for effect on optical intensities (activities) of ALuc16: metal cation-free Tris-HCl buffer (pH 8.2, 0.05 M), nCTZ. The procedure: The metal cation-driven optical properties were estimated with ALuc16 (FIG. 6). A metal cation-free sample of ALuc16 was prepared beforehand as follows: we first generated a DNA construct of ALuc16 carrying a Strep-II tag at the C-terminus via PCR. The construct was then cloned into a pOPTHM vector (providing a cleavable N-terminal His6-MBP tag), and expressed in the bacterial strain Shuffle T7 Express (New England Biolabs) with 0.3 mM IPTG induction. […] The lysate was centrifuged at 18,000 rpm for 40 minutes, and then the supernatant was passed over a 5 mL HisTrap HP column (GE Healthcare). […] The eluted sample was dialyzed to a metal-cation-free Tris-HCl buffer (0.05 M, pH 8.2) at 4° C. for 24 hours, and finally adjusted to a concentration of 1 mg/ml by dilution. […] Meanwhile, the corresponding substrate solution carrying nCTZ (Promega) was diluted 100-fold with the cation-free Tris-HCl buffer (Solution B). 50 μL of Solution B was simultaneously injected into Solution A in the 96-well plate with a multichannel micropipette (Gilson). The microplate was immediately moved to an image analyzer (LAS-4000, FujiFilm) equipped with a cooled charge-coupled device (CCD) camera, and the optical intensities were simultaneously estimated in a precision mode. The measurements were conducted in triplicate (n=3). The optical images were analyzed with Multi Gauge V3.2 (FujiFilm). […] The experiment was conducted by the same method as that of FIG. 6. In the inset, the optical image taken with LAS-4000 (FujiFilm) is shown.

Series [8] is described as follows: Luminescence activity of novel artificial bioluminescent enzymes (COS-7 cell lysate). The settings on record: COS-7 lysate, native coelenterazine. It is filed as biochemical, African green monkey. On the procedure:
African green monkey kidney-derived COS-7 cells were cultured using a 96-well microplate. The COS-7 cells were grown until occupying 90% of the bottom-surface area of the culture plate, and, as shown in FIG. 19 and FIG. 20, were each transiently transfected with a pcDNA 3.1(+) vector (Invitrogen) encoding each luminescent enzyme with a lipofection reagent (TransIT-LT1, Mirus). After that, the cells were further cultured for about 1 day. After the culture, cell lysates were prepared using a cell lysis agent (Lysis buffer, Promega), and 5 μL each of the cell lysates was taken from each well and transferred to a 96-well microplate for measurement. An assay buffer (50 μL) containing native coelenterazine was simultaneously added to each well using a multichannel pipette. Immediately after the addition of the assay buffer, the microplate was moved into the black box of an image analyzer (LAS-4000, FujiFilm), and luminescence images were measured with a CCD camera (FIG. 19 and FIG. 20).

Series [9] in a line: Enzymatic activity confirmation: temporal stability in luminescence. It is filed as biochemical, African monkey. As to conditions: compared to existing ALuc or conventional copepod luciferases. On the procedure: The enzymatic activity of ALuc may be examined according to the following method. First, using a known lipid reagent for gene introduction, an expression vector encoding ALuc is introduced into African monkey-derived COS-7 cells. As a control, an expression vector having a known GLuc without any mutation is also introduced into the cells in the same manner. At a predetermined time (from 10 hours to 20 hours, for example, 16 hours) after the introduction of the vector, a cell lysate is prepared using a known cell lysis reagent.
After that, the cell lysate is mixed with a known substrate solution containing coelenterazine, and its color intensity, temporal stability in luminescence, and the like are measured.
The luminescence intensity may be found by measuring the intensity at a specific wavelength using a conventional luminescence spectrophotometer after addition of a known substrate. By performing the measurement every minute, the temporal stability in luminescence can be evaluated based on the temporal change in luminescence. In order to measure a shift to a longer wavelength, scanning of the entire wavelength is required.

Series [10] in a line: Proton-dependent optical intensities and optical stability of ALucs (COS-7 cell lysate). As to conditions: for elevation of optical intensities at pH 7 as compared to pH 6: COS-7 lysate, nCTZ; for intensities as share of the initial intensities 20 minutes after substrate injection: pH 9, coelenterazine analog. It is filed as biochemical, African green monkey. On the procedure:
The proton-driven optical intensities of ALucs were calculated to help elucidate the proton-bioluminescence relationship (FIG. 4). […] The cells were cultured and lysed by the same method as that of FIG. 2(B). Then, 10 μL of the lysates in the plate were simultaneously mixed with 40 µL of the substrate solution, which was prepared by mixing a native coelenterazine (nCTZ) stock (FIG. 4(B)) with an aliquot of the universal buffer with the pH ranging from 4 to 9 (final concentration of the substrate: 0.1 mg/ml). Immediately after the substrate injection, the plate was moved into an image analyzer (LAS-4000, FujiFilm), and relative optical intensities were integrated for 30 seconds. The time course of the intensities was estimated every 5 minutes for 20 minutes (FIG. 4(D)).

Sequence of OLuc (Q9GV45 28-196): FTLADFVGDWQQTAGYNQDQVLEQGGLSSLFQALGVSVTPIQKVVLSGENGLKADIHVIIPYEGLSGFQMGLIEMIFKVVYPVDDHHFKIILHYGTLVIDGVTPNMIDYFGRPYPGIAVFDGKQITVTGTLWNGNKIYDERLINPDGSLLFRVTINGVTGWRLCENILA

As to `[Cl][Al]([Cl])[Cl]` [Al(III)], the “effect on structure of ALuc16 (CD spectra, 222 nm)” value in series [1] is “α-helical portion is gradually decreased; also recorded: destroy the tertiary structure of ALuc16; also recorded: the structure of ALuc16 is denatured”.
For `[Ca+2].[Cl-].[Cl-]` [Ca(II)], the “effect of increasing concentration on overall luminescence intensity” value in series [2] is reported as “reduces an overall luminescence intensity”. Also, in series [2] (with/without rapamycin), the “effect of increasing concentration on S/N ratio” value is given as “improves an S/N ratio”. For the same molecule, the “effect on activities of Fridericia luciferase” value (shortened to “effect on activities”) in [3] is reported as “elevate”. In addition, the “blue shift of the bioluminescence spectrum” value in series [4] was 2 nm. Also, in series [5], the “effect on long-term stability of bioluminescence intensities” value is given as “prolonged the bioluminescence intensities in a concentration-dependent manner”. In [5] (after 60 minutes), the optical intensity retained was 4%. Moreover, in series [5] (for 13 minutes after nCTZ injection), the “initial optical intensity sustained” value was 60%.
As for `[Cl][Cd][Cl]` [Cd(II)], the “effect on optical intensity of OLuc” value in [6] is “inhibited the optical intensity”.
As to `[Cl][Cu][Cl]` [Cu(II)], in [6], the “effect on optical intensity of OLuc” value was “inhibited the optical intensity”. Moreover, the “effect on optical intensities (activities) of ALuc16” value (“effect on optical intensities” below) in series [7] is given as “suppress”.
As to `[Cl-].[Cl-].[Mg+2]` [Mg(II)], the “effect on activities” value in series [3] is “elevate”. Further, in series [5], the “effect on long-term stability of bioluminescence intensities” value is given as “seldom influences the long-term stability”.
As for `[Cl][Mn][Cl]` [Mn(II)], in series [3], the “effect on activities” value is recorded as “elevate”. The “effect on optical intensities” value in series [7] was “boosting effect with Mn(II) was not observed”.
For `[Cl][Ni][Cl]` [Ni(II)], the “red shift of the bioluminescence spectrum” value in series [4] turned out to be 4 nm.
For `[Cl][Pb][Cl]` [Pb(II)], in series [1], the “levels that showed basal noise CD spectra” value is recorded as “higher than 1 μg/mL” and the “effect on structure of ALuc16 (CD spectra, 222 nm)” value is listed as “destroy the tertiary structure of ALuc16; also recorded: the structure of ALuc16 is denatured”. Besides, in [7] (Tris-HCl, pH 8.2), the “concentration by which the optical intensity was quickly decreased” value turned out to be 1 µg/mL. Moreover, the detection limit entry in series [7] (dose-response of ALuc16 activities) is reported as “around 0.4 μg/mL”. Also, the “effect on optical intensities” value in series [7] was “suppress; also recorded: quickly inhibited”.
With `[Cl-].[Cl-].[Zn+2]` [Zn(II)], in series [6], the “effect on optical intensity of OLuc” value is “inhibited the optical intensity”. In addition, the “effect on optical intensities” value in [7] is reported as “suppress”.

B1: ALuc45: artificial luciferase, SEQ ID NO: 5 (protein)
chain: MMGIKVLFALVCLALVQAKPTEDEDEDDIVDVVGNFWAIGVDNDRDFTISADRGKLPGKKLPKEVLIEIEANAKKAGCTRGCLICLSKIKCTAKMKKWLPGRCHSYEGDKDTGQGGIGEPIVDAPEIPGFKDLTPMEQFIAQVDLCADCTTGCLKGLANVKCSALLKKWLPDRCASFADKIQKEVDNIKGLAGS
Turning to B1, the “luminescence intensities as compared to conventional ALucs (e.g., ALuc16 and ALuc30)” value in series [8] is listed as “even stronger luminescence intensities”. Further, the luminescence stability result in series [9] is listed as “remarkably stable luminescence signal”.

B2: ALuc23: conventional artificial luciferase from the inventor's previous research, SEQ ID NO: 32 (protein)
chain: MMGIKVLFALICFALVQANPTENKDDIDIVGVEGKFGTTDLETDLFTIVEDMNVISRDTDVDANRADRGRRGKLPGKKLPLEVLKELEANAQKAGCTRGCLICLSHIKCTAKMKKWLPGRCESWEGDKETGQGGIGEAIVDIPEIPGFKELAPMEQFIAQVDLCADCTTGCLKGLANVKCSALLKKWLPSRCAGFADKIQAQVDTIKGAGGS
modifications: Synthetic Sequence - ALuc23
With B2, in series [10], the “elevation of optical intensities at pH 7 as compared to pH 6” value is recorded as “about 5 fold” and the “intensities as share of the initial intensities 20 minutes after substrate injection” value was found to be 41%.

B3: ALuc34: conventional artificial luciferase, SEQ ID NO: 35 (protein)
chain: MMGIKVLFALICFALVQANMMDYKDDDDKVGVEGKFGTTDLETDLFTIVEDMNVISRDTDVDANRADRGRRGKLPGKKLPLEVLKELEANAQKAGCTRGCLICLSHIKCTAKMKKWLPGRCESWEGDKETGQGGIGEAIVDIPEIPGFKELAPMEQFIAQVDLCADCTTGCLKGLANVKCSALLKKWLPSRCAGFADKIQAQVDTIKGAGGS
modifications: Synthetic Sequence - ALuc34
With B3, in [10], the “elevation of optical intensities at pH 7 as compared to pH 6” value was “about 5 fold” and the “intensities as share of the initial intensities 20 minutes after substrate injection” value is 60%.
